Assay [1] addresses T1, Bcr-Abl^wt (Homo sapiens, UniProt P00519).
T1 construct: purchased Millipore
T1 sequence (P00519 242-493 limits assumed): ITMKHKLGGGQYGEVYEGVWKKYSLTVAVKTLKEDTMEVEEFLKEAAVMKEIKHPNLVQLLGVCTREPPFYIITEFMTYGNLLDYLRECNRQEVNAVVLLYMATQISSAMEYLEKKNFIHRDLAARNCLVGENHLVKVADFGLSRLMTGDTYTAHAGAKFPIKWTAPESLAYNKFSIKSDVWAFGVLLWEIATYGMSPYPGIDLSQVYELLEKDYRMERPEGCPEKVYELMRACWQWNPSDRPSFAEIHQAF
Nature of the assay: Kinase activation assay (IC50), fluorescence polarization tyrosine kinase assay kit. The class given is biochemical. As to conditions: kinase domain (Millipore), Poly (Glu, Tyr) 4:1 substrate, FP readout. On the procedure: (§1) Test 1: Kinase Activation Assay (IC50)
(§2) A kinase domain (Millipore) comprising the entire cytoplasmic sequences of Bcr-Abl^wt and Bcr-Abl^T315I mutation kinases and a tyrosine kinase assay kit (Panvera, P2837) were used to measure an inhibitory activation on Bcr-abl. Other kinases such as FGFR, Flt, KDR, PDGFR, Fms, Kit, Raf, Tie2, Src, and Ret were also measured by the same method. In order to prepare a sample, the each compound obtained in Examples 1 to 128 was diluted 10 times with a kinase buffer to a concentration of 10˜0.0001 μM.
(§3) The each kinase was diluted with a kinase buffer to a concentration of 30˜300 ng/assay by using the each Kd value. The kinase buffer consisted of 100 mM HEPES (PH 7.4), 25 mM MgCl2, 10 mM MnCl2, and 250 μM Na3VO4, being kept refrigerated after filtered.
(§4) The test was conducted in 96 well polystyrene round bottom plates. First, 10 μL of the diluted sample was combined with 10 μL of the enzyme solution at room temperature for 10 minutes using a shaker. 10 μL of Poly (Glu, Tyr) 4:1 (Sigma) matrix solution in an appropriate concentration and 10 μL of ATP solution (5˜300 μM) were added to the sample and subjected to a reaction at room temperature for 60 minutes in a shaker. After 60 minutes, an EDTA solution was added thereto to complete the kinase reaction and the reaction mixture was left in a shaker for 5 minutes at room temperature. A tracer, an antibody, and a fluorescence polarization (FP) diluted reaction solution were mixed at a ratio of 1:1:3 to prepare a detecting solution, 50 μL of which was added to the each sample and subjected to a reaction at room temperature for 30 minutes in a shaker. As fluorescing, light was blocked out and the FP value was measured using a FP instrument (excitation wavelength: 485 nm, and emission wavelength: 530 nm).
(§5) And the inhibition on kinase reaction was calculated for the sample in the range of 0˜100% as compared to the control group, and the concentration on x-axis at 50% inhibition was obtained as an inhibitory concentration (IC50) value.
(§6) 50% inhibitory concentration (IC50) Y=bottom+(top−bottom)/(1+10exp(X−log IC50)
A general note: In fluorescence polarisation assays a small probe gives low polarisation when free and higher when bound to something large.

Assay [2] deals with T2, Bcr-Abl^T315I (Homo sapiens, UniProt P00519, T315I).
T2 construct: purchased Millipore
T2 sequence (P00519 242-493 T315I limits assumed): T1 sequence (P00519 242-493 limits assumed) with T74I
The assay is described as above. The format is biochemical. As to conditions: T315I mutation kinase domain (Millipore), Poly (Glu, Tyr) 4:1 substrate, FP readout. On the procedure: as §1, §2, §3, §4, §5, §6

One may read the IC50 as the concentration that gives 50% inhibition.

Changes are numbered by the printed parent chain.

As for `CCN1CCN(c2cc(NC(=O)c3ccc(C)c(/C=C/c4csc5c(N)ncnc45)c3)cc(C(F)(F)F)c2)CC1` [Example 3, (E)-3-(2-(4-aminothieno[3,2-d]pyrimidine-7-yl)vinyl)-N-(3-(4-ethylpiperazine-1-yl)-5-(trifluoromethyl)phenyl)-4-methylbenzamide], the IC50 in assay [1] lay in the range of 1 to 100 nM; in assay [2] it was 1000 to 10000 nM.
The corresponding values for `Cc1ccc(NC(=O)c2cccc(C(F)(F)F)c2)cc1/C=C/c1csc2c(N)ncnc12` [Example 6, (E)-N-(3-(2-(4-aminothieno[3,2-d]pyrimidine-7-yl)vinyl)-4-methylphenyl)-3-(trifluoromethyl)benzamide] are 100 to 1000 nM and 1000 to 10000 nM.
Consider `CCN1CCN(Cc2ccc(C(=O)Nc3ccc(C)c(/C=C/c4csc5c(N)ncnc45)c3)cc2C(F)(F)F)CC1` [Example 7, (E)-N-(3-(2-(4-aminothieno[3,2-d]pyrimidine-7-yl)vinyl)-4-methylphenyl)-4-((4-ethylpiperazin-1-yl)methyl)-3-(trifluoromethyl)benzamide], for which the IC50 is 1 to 100 nM in assay [1] and 100 to 1000 nM in assay [2].
Taken in the same sequence, the figures for `Cc1ccc(C(=O)Nc2cccc(C(F)(F)F)c2)cc1NC(=O)c1csc2c(N)ncnc12` [Example 8, 4-amino-N-(2-methyl-5-(3-(trifluoromethyl)phenylcarbamoyl)phenyl)thieno[3,2-d]pyrimidine-7-carboxamide] were 1 to 100 nM and 1 to 100 nM.
The corresponding values for `COc1cc(NC(=O)c2ccc(C)c(NC(=O)c3csc4c(N)ncnc34)c2)cc(OC)c1` [Example 12, 4-amino-N-(5-(3,5-dimethoxyphenylcarbamoyl)-2-methylphenyl)thieno[3,2-d]pyrimidine-7-carboxamide] are 1 to 100 nM and 100 to 1000 nM.
On to `COc1cc(Nc2ncnc3c(C(=O)Nc4cc(C(=O)Nc5cccc(C(F)(F)F)c5)ccc4C)csc23)cc(OC)c1OC` [Example 14, N-(2-methyl-5-(3-(trifluoromethyl)phenylcarbamoyl)phenyl)-4-(3,4,5-trimethoxyphenylamino)thieno[3,2-d]pyrimidine-7-carboxamide], for which the IC50 fell in the range of 100 to 1000 nM in assay [1] and 1000 to 10000 nM in assay [2].
For `Cc1ccc(C(=O)Nc2cccc(C(F)(F)F)c2)cc1NC(=O)c1csc2c(NC(C)C)ncnc12` [Example 17, 4-(isopropylamino)-N-(2-methyl-5-(3-(trifluoromethyl)phenylcarbamoyl)phenyl)thieno[3,2-d]pyrimidine-7-carboxamide], the results for the IC50 in assay [1] and in assay [2] were 1 to 100 nM and 1000 to 10000 nM, respectively.
As for `CC(=O)OCc1ccc(NC(=O)c2ccc(C)c(NC(=O)c3csc4c(NC5CC5)ncnc34)c2)cc1C(F)(F)F` [Example 23, 4-(3-(4-(cyclopropylamino)thieno[3,2-d]pyrimidine-7-carboxamido)-4-methylbenzamido)-2-(trifluoromethyl)benzyl acetate], the IC50 in assay [1] is 1 to 100 nM; in assay [2], 1000 to 10000 nM.
Turning to `Cc1ccc(C(=O)Nc2ccc(CO)c(C(F)(F)F)c2)cc1NC(=O)c1csc2c(NC3CC3)ncnc12` [Example 24, 4-(cyclopropylamino)-N-(5-(4-(hydroxymethyl)-3-(trifluoromethyl)phenylcarbamoyl)-2-methylphenyl)thieno[3,2-d]pyrimidine-7-carboxamide], the IC50 in assay [1] and in assay [2] was 1 to 100 nM throughout.
With `Cc1ccc(C(=O)Nc2ccc(N3CCOCC3)nc2)cc1NC(=O)c1csc2c(NC3CC3)ncnc12` [Example 29, 4-(cyclopropylamino)-N-(2-methyl-5-(6-morpholinopyridine-3-ylcarbamoyl)phenyl)thieno[3,2-d]pyrimidine-7-carboxamide], the results for the IC50 in assay [1] and in assay [2] were 1 to 100 nM and 1000 to 10000 nM, respectively.
The corresponding values for `CCN1CCN(c2ccc(NC(=O)c3ccc(C)c(NC(=O)c4csc5c(NC6CC6)ncnc45)c3)cn2)CC1` [Example 30, 4-(cyclopropylamino)-N-(5-(6-(4-ethylpiperazine-1-yl)pyridine-3-ylcarbamoyl)-2-methylphenyl)thieno[3,2-d]pyrimidine-7-carboxamide] are 1000 to 10000 nM and 1000 to 10000 nM.
The corresponding values for `Cc1cn(-c2cc(NC(=O)c3ccc(C)c(NC(=O)c4csc5c(NC6CC6)ncnc45)c3)cc(C(F)(F)F)c2)c(C)n1` [Example 31, 4-(cyclopropylamino)-N-(5-(3-(2,4-dimethyl-1H-imidazole-1-yl)-5-(trifluoromethyl)phenylcarbamoyl)-2-methylphenyl)thieno[3,2-d]pyrimidine-7-carboxamide] are 1 to 100 nM and 1 to 100 nM.
The corresponding values for `COc1ccc(C(=O)Nc2cc(-n3cnc(C)c3)cc(C(F)(F)F)c2)cc1NC(=O)c1csc2c(NC3CC3)ncnc12` [Example 36, 4-(cyclopropylamino)-N-(2-methoxy-5-(3-(4-methyl-1H-imidazole-1-yl)-5-(trifluoromethyl)phenylcarbamoyl)phenyl)thieno[3,2-d]pyrimidine-7-carboxamide] are 1 to 100 nM and 1000 to 10000 nM.
Take `Cc1ccc(NC(=O)c2cccc(C(F)(F)F)c2)cc1NC(=O)c1csc2c(N)ncnc12` [Example 39, 4-amino-N-(2-methyl-5-(3-(trifluoromethyl)benzamido)phenyl)thieno[3,2-d]pyrimidine-7-carboxamide]: the IC50 in assay [1] and in assay [2] was 1 to 100 nM each time.
In the case of `Cc1ccc(NC(=O)c2cc(NCCCN(C)C)cc(C(F)(F)F)c2)cc1NC(=O)c1csc2c(NC3CC3)ncnc12` [Example 41, 4-(cyclopropylamino)-N-(5-(3-(3-(dimethylamino)propylamino)-5-(trifluoromethyl)benzamido)-2-methylphenyl)thieno[3,2-d]pyrimidine-7-carboxamide], the IC50 in assay [1] and in assay [2] was 1 to 100 nM in each case.
`COc1cc(OC)cc(C(=O)Nc2ccc(C)c(NC(=O)c3csc4c(N)ncnc34)c2)c1` [Example 43, 4-amino-N-(5-(3,5-dimethoxybenzamido)-2-methylphenyl)thieno[3,2-d]pyrimidine-7-carboxamide]: the IC50 lay within 1 to 100 nM in assay [1] and 100 to 1000 nM in assay [2].
Taken in the same sequence, the figures for `Cc1ccc(NC(=O)c2cc(-n3cccc3)cc(C(F)(F)F)c2)cc1NC(=O)c1csc2c(N)ncnc12` [Example 45, N-(5-(3-(1H-pyrrol-1-yl)-5-(trifluoromethyl)benzamido)-2-methylphenyl)-4-aminothieno[3,2-d]pyrimidine-7-carboxamide] were 1 to 100 nM and 1 to 100 nM.
Taken in the same sequence, the figures for `CCN1CCN(Cc2ccc(C(=O)Nc3ccc(C)c(NC(=O)c4csc5c(N)ncnc45)c3)cc2C(F)(F)F)CC1` [Example 49, 4-amino-N-(5-(4-((4-ethylpiperazine-1-yl)methyl)-3-(trifluoromethyl)benzamido)-2-methylphenyl)thieno[3,2-d]pyrimidine-7-carboxamide] were 1 to 100 nM and 1 to 100 nM.
`COc1cc(C(=O)Nc2ccc(C)c(NC(=O)c3csc4c(N)ncnc34)c2)nc2ccccc12` [Example 56, 4-amino-N-(5-(4-methoxyquinoline-2-carboxyamido)-2-methylphenyl)thieno[3,2-d]pyrimidine-7-carboxamide]: the IC50 was 100 to 1000 nM in assay [1] and 1000 to 10000 nM in assay [2].
As for `Cc1ccc(NC(=O)c2cc(-n3ccnc3C)cc(C(F)(F)F)c2)cc1NC(=O)c1csc2c(N)ncnc12` [Example 61, 4-amino-N-(2-methyl-5-(3-(2-methyl-1H-imidazole-1-yl)-5-(trifluoromethyl)benzamido)phenyl)thieno[3,2-d]pyrimidine-7-carboxamide], the IC50 in assay [1] and in assay [2] was 1 to 100 nM each time.
